Laboratory results published in ChEMBL document CHEMBL2062423 (ACS Med Chem Lett, 2012).
Active and inactive are the calls of the source. The rule behind the calls is not given here.

Legend:
[1] = target: Sodium-dependent dopamine transporter (Homo sapiens, UniProt Q01959); experiment: Displacement of [3H]WIN-35,428 from human DAT expressed in mouse N2A cells after 15 mins by liquid scintillation counting; assay type: cell-based
[2] = target: Sodium-dependent dopamine transporter (Rattus norvegicus) (UniProt P23977); experiment: Binding affinity to DAT in rat striatal membrane at 10 nM incubated for 1.5 hrs prior to irradiation measured after 5 mins by photoaffinity labeling-based autoradiographic analysis in presence of D-methylphenidate; assay type: cell membranes; settings: Striatum, tested as the 125I-labelled form
Sodium-dependent dopamine transporter (Rattus norvegicus), sequence (P23977 whole entry): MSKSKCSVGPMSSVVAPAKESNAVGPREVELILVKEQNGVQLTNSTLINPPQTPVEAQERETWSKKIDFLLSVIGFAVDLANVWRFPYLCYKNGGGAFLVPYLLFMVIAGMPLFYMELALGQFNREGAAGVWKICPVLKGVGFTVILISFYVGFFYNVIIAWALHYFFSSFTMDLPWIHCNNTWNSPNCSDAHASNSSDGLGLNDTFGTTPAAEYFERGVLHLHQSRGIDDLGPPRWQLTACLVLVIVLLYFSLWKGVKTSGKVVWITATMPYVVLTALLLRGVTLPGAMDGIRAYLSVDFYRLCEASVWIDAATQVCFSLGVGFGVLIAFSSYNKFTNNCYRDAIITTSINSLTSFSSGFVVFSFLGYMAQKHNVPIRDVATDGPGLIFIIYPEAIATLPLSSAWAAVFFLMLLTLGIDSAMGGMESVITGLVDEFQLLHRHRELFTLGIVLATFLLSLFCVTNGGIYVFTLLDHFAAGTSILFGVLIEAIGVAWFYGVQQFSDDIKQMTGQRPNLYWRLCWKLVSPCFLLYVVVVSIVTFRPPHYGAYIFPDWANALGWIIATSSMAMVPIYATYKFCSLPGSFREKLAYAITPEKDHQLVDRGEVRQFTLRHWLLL

[3] = target: Sodium-dependent dopamine transporter (Rattus norvegicus) (UniProt P23977); experiment: Binding affinity to DAT in rat striatal membrane at 10 nM incubated for 1.5 hrs prior to irradiation measured after 5 mins by photoaffinity labeling-based autoradiographic analysis; assay type: cell membranes; settings: Striatum, tested as the 125I-labelled form
[4] = target: Sodium-dependent dopamine transporter (Rattus norvegicus) (UniProt P23977); experiment: Binding affinity to DAT in rat striatal membrane at 10 nM incubated for 1.5 hrs prior to irradiation measured after 5 mins by photoaffinity labeling-based autoradiographic analysis in presence of (-)-cocaine; assay type: cell membranes; settings: Striatum, tested as the 125I-labelled form

Sodium-dependent dopamine transporter, sequence (Q01959 whole entry): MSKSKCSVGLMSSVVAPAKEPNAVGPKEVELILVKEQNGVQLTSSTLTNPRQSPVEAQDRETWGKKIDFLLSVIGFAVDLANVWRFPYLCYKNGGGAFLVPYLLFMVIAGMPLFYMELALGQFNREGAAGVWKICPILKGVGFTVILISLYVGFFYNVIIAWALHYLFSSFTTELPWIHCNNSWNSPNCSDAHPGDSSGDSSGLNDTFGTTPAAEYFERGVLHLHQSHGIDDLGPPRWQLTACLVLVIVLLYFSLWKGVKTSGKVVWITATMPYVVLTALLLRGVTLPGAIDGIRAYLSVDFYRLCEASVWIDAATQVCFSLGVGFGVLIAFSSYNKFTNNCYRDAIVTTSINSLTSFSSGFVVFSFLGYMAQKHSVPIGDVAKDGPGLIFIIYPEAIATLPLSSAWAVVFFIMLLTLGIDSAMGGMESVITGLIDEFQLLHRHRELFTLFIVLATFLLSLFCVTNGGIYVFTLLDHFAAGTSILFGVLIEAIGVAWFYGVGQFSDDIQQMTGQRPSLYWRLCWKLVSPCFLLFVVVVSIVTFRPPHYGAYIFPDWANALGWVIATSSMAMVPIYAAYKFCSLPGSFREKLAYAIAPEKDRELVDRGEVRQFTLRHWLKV

Row | Compound | Ki [1] [nM] | Activity [2] | Activity [3] | Activity [4]
1 | COC(=O)[C@H](c1ccc(N=[N+]=[N-])cc1)[C@H]1CCCCN1 (racemic) | 35 | – | – | –
2 | COC(=O)[C@H](c1ccc(N=[N+]=[N-])c(I)c1)[C@H]1CCCCN1 (racemic) | 4 | inactive | Active | inactive
3 | COC(=O)[C@H](c1ccc([N+](=O)[O-])cc1)[C@H]1CCCCN1 (racemic) | 77 | – | – | –
4 | COC(=O)[C@H](c1ccc(Cl)c(Cl)c1)[C@H]1CCCCN1 (racemic) | 1.8 | – | – | –
5 | COC(=O)[C@H](c1ccc(N)cc1)[C@H]1CCCCN1 (racemic) | 6.3 | – | – | –
6 | COC(=O)[C@H](c1ccc(N)c(I)c1)[C@H]1CCCCN1 (racemic) | 9.1 | – | – | –
